“And” between values parts separate entries of the source, which are not always exact repeats. Equal values may be shown once.
Tested on: WM3248 melanoma cells, 486 antibodies
Test: Reverse phase protein arrays (RPPA)
Type: cell-based, Human
Source text: Pellets were snap frozen in liquid nitrogen and shipped to MD Anderson Cancer Center core RPPA facility for RPPA analysis (Table S5). Three biological replicates for each sample were generated.
Nomenclatures on the RPPA heatmaps: name_of_antibody.species_of_antibody.status_of_antibody. V - antibody validated; C - validation of antibody in progress; Q - antibody nonspecific; E – under evaluation; antibodies raised in M - mouse, G - goat, R - rabbit, or T - rat.

[1] = level 10 normalized to 0, mean of 3
[2] = level 10 normalized to 0, single replicates

## CN(C)c1cccc(Nc2cc(-c3ccccc3)nc(C3CCNCC3)n2)c1 [ARN22089, N1,N1-dimethyl-N3-(6-phenyl-2-(piperidin-4-yl)pyrimidin-4-yl)benzene-1,3-diamine]
Level 5 vs 0, replicates
  INPP4b.R.C Norm_5: 0.976 and 1.019
  IR.b.R.C Norm_5: 1.056 and 1.010
  IRF.1.R.V Norm_5: 0.974 and 0.981 and 1.030
  IRF.3.R.V Norm_5: 0.924 and 0.890 and 0.996
  IRS1.R.V Norm_5: 1.029 and 1.046 and 0.995
  IRS2.R.C Norm_5: 1.195 and 0.736 and 1.046
  JAB1.M.C Norm_5: 0.954 and 0.981 and 0.972
  JNK2.R.V Norm_5: 0.643 and 1.507
  JNK_pT183_Y185.R.C Norm_5: 1.060 and 0.929 and 0.988
  Jagged1.R.V Norm_5: 1.010 and 1.054 and 0.889
  Jak2.R.V Norm_5: 0.979 and 0.991
  KAP1.R.V Norm_5: 1.116 and 1.063 and 1.099
  KEAP1.R.V Norm_5: 1.026 and 0.913 and 0.925
  LAD1.R.V Norm_5: 0.952 and 0.910 and 1.029
  LC3A.B.R.C Norm_5: 1.119 and 0.843
  LCN2.R.V Norm_5: 1.996 and 0.913 and 0.985
  LDHA.R.C Norm_5: 1.253 and 1.735 and 0.318
  LRP6_pS1490.R.V Norm_5: 1.015 and 1.011 and 1.114
  Lasu1.R.V Norm_5: 0.982 and 1.009 and 0.926
  Lck.R.V Norm_5: 1.005 and 1.060 and 0.966
  Lyn.R.V Norm_5: 0.801 and 0.941 and 0.791
  MACC1.R.V Norm_5: 0.899 and 0.883 and 1.061
  MAPK_pT202_Y204.R.C Norm_5: 1.017 and 0.736 and 0.856
  MCT4.R.V Norm_5: 1.005 and 0.979 and 1.159
  MDM2_pS166.R.V Norm_5: 1.021 and 1.261 and 0.787
  MEK1.R.V Norm_5: 1.082 and 0.785 and 1.201
  MEK1_pS217_S221.R.V Norm_5: 0.926
  MEK2.R.V Norm_5: 1.048 and 1.127 and 0.942
  MERIT40.R.C Norm_5: 0.988 and 1.019 and 0.961
  MERIT40_pS29.R.V Norm_5: 1.133 and 1.001
  METTL3.R.V Norm_5: 0.968 and 1.099 and 0.891
  MIF.R.C Norm_5: 0.931 and 0.965 and 0.948
  MIG6.R.V Norm_5: 0.932 and 0.886 and 1.000
  MITF.R.V Norm_5: 0.975 and 1.014
  MLH1.M.V Norm_5: 0.900 and 0.937 and 0.942
  MLKL.R.V Norm_5: 0.966 and 0.982 and 0.886
  MMP2.R.V Norm_5: 0.925 and 0.948 and 0.967
  MMP14.R.V Norm_5: 1.097 and 1.257
  MR1.M.C Norm_5: 0.897 and 0.992
  MRAP.R.C Norm_5: 1.109 and 1.057 and 0.987
  MSH2.R.C Norm_5: 0.939 and 1.022 and 0.901
  MSH6.R.C Norm_5: 1.190 and 0.909
  MSI2.R.C Norm_5: 1.108 and 1.110 and 1.024
  MTCO1.M.V Norm_5: 0.944 and 0.964 and 1.334
  MTSS1.M.C Norm_5: 0.924 and 0.926 and 1.000
  Mcl.1.R.V Norm_5: 0.943 and 0.925 and 1.013
  MelanA.R.C Norm_5: 0.973 and 1.097
  Melanoma.gp100.R.C Norm_5: 1.016
  Merlin.R.C Norm_5: 1.257 and 0.725
  Midkine.R.V Norm_5: 0.866 and 0.942 and 0.987
  Mitofusin.1.R.V Norm_5: 1.058 and 0.973
  Mitofusin.2.R.V Norm_5: 0.945
  Mnk1.R.V Norm_5: 1.014 and 0.983
  mTOR.R.V Norm_5: 1.006 and 1.101 and 0.990
  mTOR_pS2448.R.C Norm_5: 1.104 and 1.133 and 1.002
[1]
  TSC1.R.C Norm_10 Average: 0.899
  TTF1.R.V Norm_10 Average: 1.078
  TUFM.R.V Norm_10 Average: 1.221
  Tuberin.R.V Norm_10 Average: 0.835
  Tuberin_pT1462.R.V Norm_10 Average: 1.064
  Twist.M.C Norm_10 Average: 1.019
  Tyro3.R.V Norm_10 Average: 1.386
  U.Histone.H2B.R.C Norm_10 Average: 0.890
  UBAC1.R.V Norm_10 Average: 1.014
  UBQLN4.M.C Norm_10 Average: 0.961
  UGT1A.M.V Norm_10 Average: 1.050
  UQCRC2.M.C Norm_10 Average: 1.112
  UVRAG.R.C Norm_10 Average: 0.935
  VASP.R.V Norm_10 Average: 0.873
  VAV1.R.C Norm_10 Average: 0.923
  VEGFR.2.R.V Norm_10 Average: 0.957
  VEGFR.2_pY1175.R.C Norm_10 Average: 0.964
  VHL.EPPK1.M.C Norm_10 Average: 1.030
  VHL.R.C Norm_10 Average: 0.986
  Vinculin.M.V Norm_10 Average: 0.988
  WIPI1.R.C Norm_10 Average: 1.318
  WIPI2.R.C Norm_10 Average: 0.944
  WTAP.R.V Norm_10 Average: 1.224
  Wee1.R.C Norm_10 Average: 0.915
  Wee1_pS642.R.C Norm_10 Average: 0.900
  XBP.1.G.C Norm_10 Average: 1.193
  XIAP.R.C Norm_10 Average: 0.978
  XPA.M.V Norm_10 Average: 0.978
  XPF.R.C Norm_10 Average: 0.977
  YAP.R.C Norm_10 Average: 1.029
  YB1_pS102.R.V Norm_10 Average: 0.937
  YES1.R.V Norm_10 Average: 1.017
  YTHDF3.R.C Norm_10 Average: 1.101
  ZAP.70.R.V Norm_10 Average: 0.957
  ZEB1.R.V Norm_10 Average: 0.964
[2]
  TSC1.R.C Norm_10_1 to Norm_10_3: 0.905 and 0.842
  TTF1.R.V Norm_10_1 to Norm_10_3: 1.022 and 0.970 and 1.241
  TUFM.R.V Norm_10_1 to Norm_10_3: 0.423 and 1.882 and 1.360
  Tuberin.R.V Norm_10_1 to Norm_10_3: 1.169 and 0.526 and 0.811
  Tuberin_pT1462.R.V Norm_10_1 to Norm_10_3: 1.492 and 0.717 and 0.984
  Twist.M.C Norm_10_1 to Norm_10_3: 1.114 and 1.030
  Tyro3.R.V Norm_10_1 to Norm_10_3: 1.080 and 1.777 and 1.302
  U.Histone.H2B.R.C Norm_10_1 to Norm_10_3: 0.871 and 0.726
  UBAC1.R.V Norm_10_1 to Norm_10_3: 0.932 and 1.030 and 1.078
  UBQLN4.M.C Norm_10_1 to Norm_10_3: 0.984 and 0.918 and 0.980
  UGT1A.M.V Norm_10_1 to Norm_10_3: 1.017 and 1.128 and 1.006
  ULK1_pS757.R.C Norm_10_1 to Norm_10_3: 1.125 and 0.823 and 0.899
  UQCRC2.M.C Norm_10_1 to Norm_10_3: 0.945 and 1.144 and 1.246
  UVRAG.R.C Norm_10_1 to Norm_10_3: 1.050 and 0.851 and 0.904
  VASP.R.V Norm_10_1 to Norm_10_3: 0.815 and 0.894
  VAV1.R.C Norm_10_1 to Norm_10_3: 1.035 and 0.844 and 0.890
  VEGFR.2.R.V Norm_10_1 to Norm_10_3: 0.901 and 0.958 and 1.012
  VEGFR.2_pY1175.R.C Norm_10_1 to Norm_10_3: 0.930 and 0.993
  VHL.EPPK1.M.C Norm_10_1 to Norm_10_3: 0.587 and 1.522 and 0.982
  VHL.R.C Norm_10_1 to Norm_10_3: 0.900 and 0.987
  Vinculin.M.V Norm_10_1 to Norm_10_3: 0.829 and 1.085 and 1.051
  WIPI1.R.C Norm_10_1 to Norm_10_3: 1.210 and 1.510 and 1.234
  WIPI2.R.C Norm_10_1 to Norm_10_3: 1.209 and 0.707 and 0.915
  WTAP.R.V Norm_10_1 to Norm_10_3: 0.900 and 1.764 and 1.008
  Wee1.R.C Norm_10_1 to Norm_10_3: 0.851 and 0.833 and 1.061
  Wee1_pS642.R.C Norm_10_1 to Norm_10_3: 0.901 and 0.776 and 1.023
  XBP.1.G.C Norm_10_1 to Norm_10_3: 0.989 and 1.187 and 1.403
  XIAP.R.C Norm_10_1 to Norm_10_3: 1.022 and 1.000
  XPA.M.V Norm_10_1 to Norm_10_3: 1.064
  XPF.R.C Norm_10_1 to Norm_10_3: 0.948 and 0.944
  XRCC1.R.C Norm_10_1 to Norm_10_3: 0.931 and 1.213
  YAP.R.C Norm_10_1 to Norm_10_3: 0.955 and 1.252 and 0.879
  YAP_pS127.R.V Norm_10_1 to Norm_10_3: 0.913 and 1.139 and 0.796
  YB1_pS102.R.V Norm_10_1 to Norm_10_3: 0.840 and 1.032
  YES1.R.V Norm_10_1 to Norm_10_3: 1.000 and 0.982
  YTHDF2.R.V Norm_10_1 to Norm_10_3: 1.206 and 1.258
  YTHDF3.R.C Norm_10_1 to Norm_10_3: 1.009 and 1.186 and 1.108
  ZAP.70.R.V Norm_10_1 to Norm_10_3: 1.012 and 0.977 and 0.883
  ZEB1.R.V Norm_10_1 to Norm_10_3: 0.854 and 1.114 and 0.924
Level 10 vs 0
  HLA.DQA1.R.V Norm_10 Average: 0.993
  HLA.DR.DP.DQ.DX.R.C Norm_10 Average: 1.057
  HMHA1.R.V Norm_10 Average: 0.922
  HNRNPK.R.V Norm_10 Average: 1.030
  HSP27.M.C Norm_10 Average: 0.958
  HSP27_pS82.R.V Norm_10 Average: 0.916
  HSP60.R.V Norm_10 Average: 0.926
  HSP70.R.C Norm_10 Average: 0.973
  Hexokinase.I.R.C Norm_10 Average: 1.225
  Hexokinase.II.R.V Norm_10 Average: 1.128
  Hif.1αR.C Norm_10 Average: 1.156
  Histone.H3.R.V Norm_10 Average: 0.957
  IDO.R.C Norm_10 Average: 0.957
  IGF1R_pY1135_Y1136.R.V Norm_10 Average: 0.918
  IGFBP2.R.V Norm_10 Average: 0.935
  IGFBP3.M.V Norm_10 Average: 0.971
  IGFRb.R.C Norm_10 Average: 0.953
  IL.6.R.C Norm_10 Average: 0.924
  IMP3.R.C Norm_10 Average: 0.953
  INPP4b.R.C Norm_10 Average: 1.029
  IR.b.R.C Norm_10 Average: 0.981
  IRF.1.R.V Norm_10 Average: 0.874
  IRF.3.R.V Norm_10 Average: 0.967
  IRS1.R.V Norm_10 Average: 0.929
  IRS2.R.C Norm_10 Average: 1.033
  JAB1.M.C Norm_10 Average: 1.009
  JNK2.R.V Norm_10 Average: 2.307
  JNK_pT183_Y185.R.C Norm_10 Average: 0.955
  Jagged1.R.V Norm_10 Average: 0.936
  Jak2.R.V Norm_10 Average: 0.959
  KAP1.R.V Norm_10 Average: 1.103
  KEAP1.R.V Norm_10 Average: 1.017
  LAD1.R.V Norm_10 Average: 0.908
  LC3A.B.R.C Norm_10 Average: 1.064
